Experiments:
[1] = molecular target: recombinant human cGAS (Homo sapiens (Human), UniProt Q8N884); experiment: In vitro inhibition assay of cGAS activity (cGAMP production, RapidFire mass spectrometry); assay type: biochemical; conditions: 10 nM recombinant human cGAS, 60 nM 75-bp dsDNA, ATP, GTP, room temperature 3 hours, read-out: IC50 (μM), In vitro inhibition assay for Compounds 95-348
Outline: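 Product cGAMP was quantified by RapidFire MS against a difluoro-cGAMP internal standard after a formic acid quench. The reaction contained 10 nM recombinant full-length human cGAS, 75-bp dsDNA (60 nM), ATP and GTP (50 μM) and ran for 3 h at room temperature. IC50 values came from 4-parameter nonlinear regression.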

[2] = system: cGAS activity in THP1 cells (IFNb as marker); experiment: Cellular assay to measure cGAS activity (IFNb production in PMA-differentiated THP1 cells stimulated by RDG-Adenovirus-GFP); assay type: cell-based, human; conditions: Homo sapiens, THP-1, THP1 cells, PMA differentiated, RDG-Adenovirus-GFP 1000 MOI, IFNb AlphaLISA, overnight incubation; read-out: IC50 (μM), Cellular assay for Compounds 95-348
Protocol: Cellular assay to measure cGAS activity: Use THP1 cell line from ATCC to determine inhibition of cGAS activity by test compounds in human cells. Plate cells on 96-well plates at 0.2×10^6/well and differentiate with phorbol myristate acetate (PMA) at 37° C./5% CO2. After 24 hours, replace PMA containing media with media lacking PMA and further incubate overnight. Stimulate cells were then by RDG-Adenovirus-GFP (Vector Biolabs #1768) at 1000 MOI for 4 hours prior to the addition of test compounds. After overnight incubation, transfer 10 μL of the media from each well to a new plate for IFNb analysis as a marker for cGAS activity. Measure quantification of IFNb with an IFNb AlphaLISA Detection kit (Perkin Elmer AL3133F) by mixing the acceptor beads with the cell supernatant followed by the addition of the biotinylated antibody and donor beads. Measure the relative fluorescence signal produced from the interaction of the donor and acceptor beads by a PHERAStar AlphaLISA protocol and evaluate the inhibitory effect of a compound by plotting specific inhibition of IFNb production against log concentration of the test compound. Calculate IC50 values using a 4-parameter non-linear logistic equation (y=(S0+((SInf−S0)/(1+((qAC50/x)^nHill))))).

Chain of recombinant human cGAS (Q8N884 whole entry): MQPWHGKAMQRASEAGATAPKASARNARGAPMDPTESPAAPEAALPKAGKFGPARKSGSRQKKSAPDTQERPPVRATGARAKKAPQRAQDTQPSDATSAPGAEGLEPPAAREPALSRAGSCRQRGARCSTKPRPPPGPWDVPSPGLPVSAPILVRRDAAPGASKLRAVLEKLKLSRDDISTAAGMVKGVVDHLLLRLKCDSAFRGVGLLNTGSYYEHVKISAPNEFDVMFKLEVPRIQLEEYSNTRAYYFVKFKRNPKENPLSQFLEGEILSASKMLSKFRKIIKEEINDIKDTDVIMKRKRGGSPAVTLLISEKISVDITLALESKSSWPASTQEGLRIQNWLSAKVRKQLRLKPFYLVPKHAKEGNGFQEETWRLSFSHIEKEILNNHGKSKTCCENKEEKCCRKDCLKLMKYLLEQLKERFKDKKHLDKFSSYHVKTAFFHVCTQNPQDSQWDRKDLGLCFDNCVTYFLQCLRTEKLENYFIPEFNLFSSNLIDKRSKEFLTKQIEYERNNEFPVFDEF

Q: What does the source list for `O=C(NC1CCc2c(-c3cn[nH]c3)c3ccc(Cl)c(Cl)c3n2C1)C1CCOCC1` (stereo not drawn) [Example 96, N-[3,4-Dichloro-10-(1H-pyrazol-4-yl)-6,7,8,9-tetrahydropyrido[1,2-a]indol-7-yl]tetrahydropyran-4-carboxamide]?
A: IC50 [1]: 0.0449 µM; IC50 [2]: 2.43 µM

Q: For `CC(=O)NC1CCc2c(-c3cn[nH]c3)c3c(OCC#N)cc(Cl)c(Cl)c3n2C1` (stereo not drawn) [Example 102, N-[3,4-Dichloro-1-(cyanomethoxy)-10-(1H-pyrazol-4-yl)-6,7,8,9-tetrahydropyrido[1,2-a]indol-7-yl]acetamide], which IC50 [1] is on record?
A: The IC50 was 0.0166 µM.

Q: What about the IC50 [2] of the same compound?
A: Its IC50 is 1.28 µM.

Q: With `O=C(Cn1cnnc1)NCc1[nH]c2c(Cl)c(Cl)ccc2c1-c1cn[nH]c1` [Example 103, N-((6,7-Dichloro-3-(1H-pyrazol-4-yl)-1H-indol-2-yl)methyl)-2-(4H-1,2,4-triazol-4-yl)acetamide] as the compound, how does the IC50 [1] read?
A: Its IC50 is 0.051 µM.

Q: What about the IC50 [2] of the same compound?
A: Its IC50 is greater than 10 µM.

Q: Which IC50 [1] does the source give for `CC(=O)NCC(=O)NC1CCc2c(-c3cn[nH]c3)c3ccc(Cl)c(Cl)c3n2C1` (stereo not drawn) [Example 107, 2-Acetamido-N-[3,4-dichloro-10-(1H-pyrazol-4-yl)-6,7,8,9-tetrahydropyrido[1,2-a]indol-7-yl]acetamide] here?
A: The IC50 was 0.0196 µM.

Q: And the IC50 [2]?
A: Its IC50 is 5.56 µM.

Q: How did the IC50 [1] turn out when `O=C(Cn1ccnc1)N1CCn2c(c(-c3cn[nH]c3)c3ccc(Cl)c(Cl)c32)C1` [Example 111, 1-[6,7-Dichloro-10-(1H-pyrazol-4-yl)-3,4-dihydro-1H-pyrazino[1,2-a]indol-2-yl]-2-imidazol-1-yl-ethanone] was run?
A: Its IC50 is 0.0468 µM.

Q: And the IC50 [2]?
A: Its IC50 is greater than 10 µM.

Q: `O=C(Cc1cnccn1)NCc1[nH]c2c(Cl)c(Cl)ccc2c1-c1cn[nH]c1` [Example 112, N-((6,7-Dichloro-3-(1H-pyrazol-4-yl)-1H-indol-2-yl)methyl)-2-(pyrazin-2-yl)acetamide] was tested. Which IC50 [1] did it give?
A: The IC50 was 0.0361 µM.

Q: And the IC50 [2]?
A: Its IC50 is 1.56 µM.

Q: Which IC50 [1] does the source give for `CN(C)C(=O)CCC(=O)N1CCn2c(c(-c3cn[nH]c3)c3c(OCC#N)cc(Cl)c(Cl)c32)C1` [Example 113, 4-[6,7-Dichloro-9-(cyanomethoxy)-10-(1H-pyrazol-4-yl)-3,4-dihydro-1H-pyrazino[1,2-a]indol-2-yl]-N,N-dimethyl-4-oxo-butanamide] here?
A: Its IC50 is 0.018 µM.

Q: What about the IC50 [2] of the same compound?
A: Its IC50 is 3.46 µM.

Q: How did the IC50 [1] turn out when `CN1CCOC[C@@H]1CC(=O)N1CCn2c(c(-c3cn[nH]c3)c3c(OCC#N)cc(Cl)c(Cl)c32)C1` [Example 114, (S)-2-((6,7-Dichloro-2-(2-(4-methylmorpholin-3-yl)acetyl)-10-(1H-pyrazol-4-yl)-1,2,3,4-tetrahydropyrazino[1,2-a]indol-9-yl)oxy)acetonitrile] was run?
A: The IC50 was 0.0244 µM.

Q: What about the IC50 [2] of the same compound?
A: Its IC50 is 1.53 µM.

Q: How did the IC50 [1] turn out when `CN1CCOC[C@H]1CC(=O)N1CCn2c(c(-c3cn[nH]c3)c3c(OCC#N)cc(Cl)c(Cl)c32)C1` [Example 115, (R)-2-((6,7-Dichloro-2-(2-(4-methylmorpholin-3-yl)acetyl)-10-(1H-pyrazol-4-yl)-1,2,3,4-tetrahydropyrazino[1,2-a]indol-9-yl)oxy)acetonitrile] was run?
A: Its IC50 is 0.0288 µM.

Q: What about the IC50 [2] of the same compound?
A: The IC50 was 1.12 µM.

Q: `CC(=O)NC1CCCn2c1c(-c1cn[nH]c1)c1ccc(Cl)c(Cl)c12` (stereo not drawn) [Example 116, N-(3,4-Dichloro-10-(1H-pyrazol-4-yl)-6,7,8,9-tetrahydropyrido[1,2-a]indol-9-yl)acetamide] was tested. Which IC50 [1] did it give?
A: The IC50 was 0.0217 µM.

Q: What about the IC50 [2] of the same compound?
A: Its IC50 is 5.23 µM.

Q: With `COCCS(=O)(=O)NC1CCc2c(-c3cn[nH]c3)c3ccc(Cl)c(Cl)c3n2C1` (stereo not drawn) [Example 117, N-[3,4-Dichloro-10-(1H-pyrazol-4-yl)-6,7,8,9-tetrahydropyrido[1,2-a]indol-7-yl]-2-methoxy-ethanesulfonamide] as the compound, how does the IC50 [1] read?
A: The IC50 was 0.0153 µM.

Q: And the IC50 [2]?
A: Its IC50 is 2.49 µM.

Q: With `CNC(=O)CCS(=O)(=O)NC1CCc2c(-c3cn[nH]c3)c3ccc(Cl)c(Cl)c3n2C1` (stereo not drawn) [Example 118, 3-(N-(3,4-Dichloro-10-(1H-pyrazol-4-yl)-6,7,8,9-tetrahydropyrido[1,2-a]indol-7-yl)sulfamoyl)-N-methylpropanamide] as the compound, how does the IC50 [1] read?
A: The IC50 was 0.0165 µM.

Q: What about the IC50 [2] of the same compound?
A: The IC50 was 3.61 µM.

Q: `CC(=O)NCCS(=O)(=O)NC1CCc2c(-c3cn[nH]c3)c3ccc(Cl)c(Cl)c3n2C1` (stereo not drawn) [Example 119, N-(2-(N-(3,4-Dichloro-10-(1H-pyrazol-4-yl)-6,7,8,9-tetrahydropyrido[1,2-a]indol-7-yl)sulfamoyl)ethyl)acetamide] was tested. Which IC50 [1] did it give?
A: Its IC50 is 0.0186 µM.

Q: And the IC50 [2]?
A: Its IC50 is 3.66 µM.

Q: What does the source list for `O=S(=O)(CCn1cnnn1)NC1CCc2c(-c3cn[nH]c3)c3ccc(Cl)c(Cl)c3n2C1` (stereo not drawn) [Example 120, N-(3,4-Dichloro-10-(1H-pyrazol-4-yl)-6,7,8,9-tetrahydropyrido[1,2-a]indol-7-yl)-2-(1H-tetrazol-1-yl)ethane-1-sulfonamide]?
A: IC50 [1]: 0.0154 µM; IC50 [2]: 2.27 µM

Q: Which IC50 [1] does the source give for `OC/C=C/CNc1cc(Cl)c(Cl)c2[nH]cc(-c3cn[nH]c3)c12` [Example 121, (E)-4-((6,7-Dichloro-3-(1H-pyrazol-4-yl)-1H-indol-4-yl)amino)but-2-en-1-ol] here?
A: The IC50 was 0.0652 µM.

Q: And the IC50 [2]?
A: Its IC50 is 2.99 µM.

Q: With `FC(F)CNc1cc(Cl)c(Cl)c2[nH]cc(-c3cn[nH]c3)c12` [Example 122, 6,7-Dichloro-N-(2,2-difluoroethyl)-3-(1H-pyrazol-4-yl)-1H-indol-4-amine] as the compound, how does the IC50 [1] read?
A: Its IC50 is 0.0137 µM.

Q: What about the IC50 [2] of the same compound?
A: Its IC50 is 0.88 µM.

Q: Which IC50 [1] does the source give for `FCCNc1cc(Cl)c(Cl)c2[nH]cc(-c3cn[nH]c3)c12` [Example 123, 6,7-Dichloro-N-(2-fluoroethyl)-3-(1H-pyrazol-4-yl)-1H-indol-4-amine] here?
A: The IC50 was 0.00491 µM.

Q: What about the IC50 [2] of the same compound?
A: The IC50 was 0.547 µM.

Q: Which results are given for `NCCOCCOCCOCCC(=O)NC1CCc2c(-c3cn[nH]c3)c3ccc(Cl)c(Cl)c3n2C1` (stereo not drawn) [Example 124, 3-[2-[2-(2-Aminoethoxy)ethoxy]ethoxy]-N-[3,4-dichloro-10-(1H-pyrazol-4-yl)-6,7,8,9-tetrahydropyrido[1,2-a]indol-7-yl]propanamide]?
A: IC50 [1]: 0.0882 µM; IC50 [2]: > 10 µM

Q: Which IC50 [1] does the source give for `CC(CO)COc1cc(Cl)c(Cl)c2[nH]cc(-c3cn[nH]c3)c12` (stereo not drawn) [Example 125, 3-((6,7-Dichloro-3-(1H-pyrazol-4-yl)-1H-indol-4-yl)oxy)-2-methylpropan-1-ol] here?
A: Its IC50 is 0.0103 µM.

Q: What about the IC50 [2] of the same compound?
A: Its IC50 is 0.426 µM.

Q: How did the IC50 [1] turn out when `F[C@H]1C[C@@H](Oc2cc(Cl)c(Cl)c3[nH]cc(-c4cn[nH]c4)c23)C1` [Example 126, 6,7-Dichloro-4-(cis-3-fluorocyclobutoxy)-3-(1H-pyrazol-4-yl)-1H-indole] was run?
A: Its IC50 is 0.0358 µM.

Q: And the IC50 [2]?
A: Its IC50 is 1.45 µM.

Q: What does the source list for `Cc1nnc(-c2[nH]c3c(Cl)c(Cl)ccc3c2-c2cn[nH]c2)o1` [Example 127, 2-(6,7-Dichloro-3-(1H-pyrazol-4-yl)-1H-indol-2-yl)-5-methyl-1,3,4-oxadiazole]?
A: IC50 [1]: 0.029 µM; IC50 [2]: 0.216 µM

Q: How did the IC50 [1] turn out when `FC(F)(F)c1nnc(-c2[nH]c3c(Cl)c(Cl)ccc3c2-c2cn[nH]c2)o1` [Example 128, 2-(6,7-Dichloro-3-(1H-pyrazol-4-yl)-1H-indol-2-yl)-5-(trifluoromethyl)-1,3,4-oxadiazole] was run?
A: The IC50 was 0.0691 µM.

Q: What about the IC50 [2] of the same compound?
A: The IC50 was greater than 10 µM.

Q: `CC(=S)NCc1[nH]c2c(Cl)c(Cl)ccc2c1-c1cn[nH]c1` [Example 129, N-[[6,7-Dichloro-3-(1H-pyrazol-4-yl)-1H-indol-2-yl]methyl]thioacetamide] was tested. Which IC50 [1] did it give?
A: The IC50 was 0.0552 µM.

Q: And the IC50 [2]?
A: The IC50 was 0.895 µM.

Q: `CC(=O)Nc1cc(Cl)c(Cl)c2[nH]c(CO)c(-c3cn[nH]c3)c12` [Example 130, N-(6,7-Dichloro-2-(hydroxymethyl)-3-(1H-pyrazol-4-yl)-1H-indol-4-yl)acetamide] was tested. Which IC50 [1] did it give?
A: Its IC50 is 0.0711 µM.

Q: And the IC50 [2]?
A: Its IC50 is 0.815 µM.

Q: How did the IC50 [1] turn out when `O=C(Nc1cc(Cl)c(Cl)c2[nH]c(CO)c(-c3cn[nH]c3)c12)C(F)F` [Example 131, N-(6,7-Dichloro-2-(hydroxymethyl)-3-(1H-pyrazol-4-yl)-1H-indol-4-yl)-2,2-difluoroacetamide] was run?
A: The IC50 was 0.0131 µM.

Q: And the IC50 [2]?
A: The IC50 was 0.163 µM.

Q: `COCc1[nH]c2c(Cl)c(Cl)cc(NC(=O)C(F)F)c2c1-c1cn[nH]c1` [Example 132, N-(6,7-Dichloro-2-(methoxymethyl)-3-(1H-pyrazol-4-yl)-1H-indol-4-yl)-2,2-difluoroacetamide] was tested. Which IC50 [1] did it give?
A: Its IC50 is 0.0202 µM.

Q: And the IC50 [2]?
A: Its IC50 is 0.317 µM.

Q: With `Cn1c(CNC(=O)CO)c(-c2cn[nH]c2)c2ccc(Cl)c(Cl)c21` [Example 133, N-[[6,7-Dichloro-1-methyl-3-(1H-pyrazol-4-yl)indol-2-yl]methyl]-2-hydroxy-acetamide] as the compound, how does the IC50 [1] read?
A: Its IC50 is 0.0112 µM.

Q: And the IC50 [2]?
A: The IC50 was 0.498 µM.

Q: What does the source list for `CC(=O)NCc1c(-c2cn[nH]c2)c2ccc(Cl)c(Cl)c2n1C` [Example 134, N-[[6,7-Dichloro-1-methyl-3-(1H-pyrazol-4-yl)indol-2-yl]methyl]acetamide]?
A: IC50 [1]: 0.0282 µM; IC50 [2]: 1.59 µM

Q: `N#CCNc1cc(Cl)c(Cl)c2c1c(-c1cn[nH]c1)c1n2CCNC1=O` [Example 135, 2-[[6,7-Dichloro-1-oxo-10-(1H-pyrazol-4-yl)-3,4-dihydro-2H-pyrazino[1,2-a]indol-9-yl]amino]acetonitrile] was tested. Which IC50 [1] did it give?
A: The IC50 was 0.0486 µM.

Q: And the IC50 [2]?
A: The IC50 was greater than 10 µM.

Q: Which IC50 [1] does the source give for `CC(=O)NCCn1cc(-c2cn[nH]c2)c2c(OCC#N)cc(Cl)c(Cl)c21` [Example 136, N-[2-[6,7-Dichloro-4-(cyanomethoxy)-3-(1H-pyrazol-4-yl)indol-1-yl]ethyl]acetamide] here?
A: The IC50 was 0.0764 µM.

Q: And the IC50 [2]?
A: The IC50 was 3.42 µM.
